Experimental data as given in patent publication US20220017468A1, “ISOQUINOLINE COMPOUNDS AND THEIR USE IN TREATING AhR IMBALANCE” (Dermavant Sciences GmbH, priority 2020, published 2022).

Columns and labels:
AhR [1] = molecular target: T1, AhR (Homo sapiens, UniProt P35869); test: CYP1A1-bla LS-180 AhR agonist assay; type: cell-based; details: CYP1A1-bla LS-180 cells, ~20 hrs
T1 construct: LS-180 cells stably transfected with a CYP1A1 promoter-linked beta-lactamase gene reporter construct; endogenous in cells; host or cells: CYP1A1-bla LS-180 cells
T1 sequence (P35869 11-848): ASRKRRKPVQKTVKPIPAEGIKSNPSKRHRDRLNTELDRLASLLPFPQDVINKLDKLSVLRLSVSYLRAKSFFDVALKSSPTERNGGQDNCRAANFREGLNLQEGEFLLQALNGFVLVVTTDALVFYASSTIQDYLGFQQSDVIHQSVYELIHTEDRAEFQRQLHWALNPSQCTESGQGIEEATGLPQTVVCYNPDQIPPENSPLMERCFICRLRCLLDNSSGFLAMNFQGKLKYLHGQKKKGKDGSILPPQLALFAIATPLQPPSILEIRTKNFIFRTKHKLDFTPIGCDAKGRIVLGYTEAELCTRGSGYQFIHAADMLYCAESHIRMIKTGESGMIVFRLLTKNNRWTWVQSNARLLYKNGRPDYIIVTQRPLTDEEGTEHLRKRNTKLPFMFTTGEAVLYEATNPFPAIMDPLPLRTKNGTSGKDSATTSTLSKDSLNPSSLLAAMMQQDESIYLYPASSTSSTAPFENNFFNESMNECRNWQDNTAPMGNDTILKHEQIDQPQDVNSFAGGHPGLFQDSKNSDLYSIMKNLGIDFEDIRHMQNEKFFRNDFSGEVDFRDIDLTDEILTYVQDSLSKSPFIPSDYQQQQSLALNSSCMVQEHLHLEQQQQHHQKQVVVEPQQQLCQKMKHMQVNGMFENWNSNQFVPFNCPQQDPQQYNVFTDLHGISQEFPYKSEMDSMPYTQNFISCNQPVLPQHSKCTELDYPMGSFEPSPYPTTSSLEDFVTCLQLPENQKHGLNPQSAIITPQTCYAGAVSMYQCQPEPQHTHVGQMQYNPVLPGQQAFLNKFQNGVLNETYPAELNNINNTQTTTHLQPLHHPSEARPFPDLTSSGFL
Description: LS-180 cells stably transfected with a CYP1A1 promoter-linked beta-lactamase gene reporter construct (termed CYP1A1-bla LS-180 cells) were used to characterize the ability of compounds to activate AhR. In brief, AhR activity was measured using the LiveBLAzer assay kit which utilizes a beta lactamase (bla) reporter gene downstream of CYP1A1 promoter, which metabolizes its substrate to give a fluorescent readout. For the agonist assay, CYP1A1-bla LS-180 cells were treated with increasing concentrations of compound over a 100,000-fold concentration range.
CYP1A1-bla LS-180 cells in exponential growth phase were washed twice with DPBS then seeded into 96-well microplates (50,000 cells/well) and allowed to adhere. […] The LiveBLAzer FRET B/G β-lactamase substrate was added in the final hour of incubation and resulting blue/green fluorescence was measured using a 96-well microplate reader.
AhR activity was measured as a function of beta-lactamase expression using a fluorescence resonance energy transfer-based readout. TCDD and FICZ were used as controls to validate the system.

[2] = tested on: primary human cell culture platforms; test: BioMAP Diversity Plus profiling; type: cell-based; details: profiles overlaid
AhR [3] = molecular target: T1, AhR; details: value reported by Invitrogen; cited from earlier work
CB2 = molecular target: T2, CB2 (Homo sapiens, UniProt P34972); test: fluorescence-based agonist assay using genetically modified yeast; type: cell-based; details: read-out: CB2 pEC50 (converted)
T2 construct: expressed in transfected cells

Nrf2 = test: luciferase-based reporter assay for NQO1 gene expression; type: cell-based
[4] = oxygen radical absorbance capacity (ORAC) test; type: biochemical; details: Trolox Equivalent Values
IL-17A = test: CD4+ T cell IL17 assay; type: cell-based, human
Description: Therefore, compounds are evaluated for their ability to reduce IL-17 production from CD4+ T cells stimulated under Th17-skewing conditions. Cryopreserved human CD4^+ T cells (AllCells, LLC, Alameda, CA and Stemcell Technologies, Inc. Vancouver, Canada) were differentiated to the Th17 subtype by culturing for 5 days in CD3-coated tissue culture plates (2 μg/mL) in Iscove's modified Dulbecco's medium (IMDM) containing 10% HI-FBS, 55 μM 2-mercaptoethanol and soluble anti-CD28 (3 μg/mL) in the presence of a Th17 skewing cocktail, [IL-1β (10 ng/mL), IL-6 (30 ng/mL), TGFβ (0.5 ng/mL), IL-21 (10 ng/mL), IL-23 (10 ng/mL), anti-IFNγ (10 μg/mL) and anti-IL-4 (10 μg/mL)] in the presence or absence of serially diluted compounds. Secretion of IL-17 from polarized CD4+ T-cells was measured in the culture media using an MSD (Meso Scale Discovery) detection system following 5 day exposure toTh17 polarization reagents with and without compounds.

T2 sequence (P34972 whole entry, species assumed): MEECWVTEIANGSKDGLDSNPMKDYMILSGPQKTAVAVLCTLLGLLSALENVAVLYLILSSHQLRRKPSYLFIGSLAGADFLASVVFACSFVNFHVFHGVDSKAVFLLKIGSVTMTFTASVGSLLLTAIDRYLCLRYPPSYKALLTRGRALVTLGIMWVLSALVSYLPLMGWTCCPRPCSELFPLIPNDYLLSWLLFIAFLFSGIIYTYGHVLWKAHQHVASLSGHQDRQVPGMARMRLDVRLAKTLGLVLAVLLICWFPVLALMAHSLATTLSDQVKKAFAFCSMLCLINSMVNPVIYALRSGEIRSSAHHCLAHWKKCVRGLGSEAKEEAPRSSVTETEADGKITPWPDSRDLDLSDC

| EC50 (CB2) [nM] | Nrf2 pEC50 (Nrf2) | IC50 (IL-17A; T-cell, MSD-based readout of secreted IL-17A from Th17-polarized primary human CD4+ peripheral blood T cells, read-out: IL-17A pIC50 (converted)) [nM] | Compound | pEC50 (AhR [1]) | sIL-17 in BioMAP [2] | pEC50 reported by Invitrogen (AhR [3]) | Hydroxyl-radical [4] [TEV] | Peroxyl radical-hydro [4] [TEV] | Peroxyl radical-lipo [4] [TEV] | Peroxynitrite [4] [TEV] | Singlet oxygen [4] [TEV] | Superoxide anion [4] [TEV] | Total ORAC value [4] [TEV] | IL-17A production (IL-17A; Th17-skewing conditions, applied throughout culture) |
| --- | --- | --- | --- | --- | --- | --- | --- | --- | --- | --- | --- | --- | --- | --- |
| – | – | – | 6-formylindolo(3,2-b)carbazole [FICZ, reference compound] | 6.82 | not seen | – | – | – | – | – | – | – | – | – |
| – | – | – | Clc1cc2c(cc1Cl)Oc1cc(Cl)c(Cl)cc1O2 [TCDD] | 10.34 | – | 9.70 | – | – | – | – | – | – | – | – |
| 158 | pEC50 = 7.6 | 3.16 | CC(C)c1c(O)cc(/C=C/c2ccccc2)cc1O [tapinarof] | – | not seen | – | 1067 | 4663 | 2164 | 140 | 3581 | 11241 | 22855 | suppression of IL-17A |
